These are literature values, as cited in patent US10427251B2, “Fine silver particle dispersion, fine silver particles, and method for producing same” (BANDO CHEMICAL INDUSTRIES, LTD., priority 2014, dated 2019).

The structures appear in SMILES notation.

The conditions of this data set: n-octanol/water.
Take `NCCCN` [1,3-propanediamine]: the “partition coefficient log P” value is recorded as −1.4. Regarding `COCCN` [2-methoxyethylamine], the “partition coefficient log P” value was −0.9.

As to `CCOCCCN` [3-ethoxypropylamine], the “partition coefficient log P” value was −0.1. With `COCCCN` [3-methoxypropylamine], the “partition coefficient log P” value was −0.5. Turning to `CCCCN` [butylamine], the “partition coefficient log P” value was 1.0. Consider `CCN` [ethylamine], for which the “partition coefficient log P” value is reported as −0.3. As for `CCCCCCN` [hexylamine], the “partition coefficient log P” value was 2.1. Consider `NCCCCCO` [pentanolamine], for which the “partition coefficient log P” value is −0.3. As to `CCCN` [propylamine], the “partition coefficient log P” value was 0.5.
